Reference: patent US5521315A, “Olefin substituted long chain compounds” (priority 1993, dated 1996)

Key:
[1] = system: CMV promoter activity in transformed (adenovirus) cells; assay: CMV promoter assay (gene transcription and translation; cytotoxicity in transformed cells); format: cell-based; conditions: for cytotoxicity ranking in CMV promoter assay: Table 2 / FIG. 18
Source text: (§1) FIG. 18 illustrates data regarding proliferative activity of various inventive compounds for inducting CMV promoter activity. The CMV promoter assay measures gene transcription and translation activity wherein any active compounds will have cytotoxic activity to inhibit cellular protein synthesis machinery in transformed (adenovirus) cells.
as §1, with “This example” for “FIG. 18”

mast cell degranulation = assay: Serotonin release assay (inhibition of mast cell degranulation); format: cell-based; conditions: 50 μM; for RELEASE-SPONT / AVERAGE % RELEASE / inhibition at 50 µM: Table 4; for RELEASE-SPONT: average corrected for spontaneous release; for AVERAGE % RELEASE: average of duplicates; for inhibition at 50 µM: Mast cell
Source text: A serotonin release assay is utilized to study the utility of the inventive compounds for treatment of asthma and allergy. […] This assay measures mast cell degranulation, which is an early phase reaction to allergen challenge. Mast cells grown in tissue culture are first loaded with ^3 H serotonin, which is incorporated into the granules in the cells. The mast cells are sensitized with antigen specific monoclonal IgE, and then triggered to degranulate with the specific antigen (dinitorphenolbound to BSA (DNP)). When the cells degranulate, ^3 H Serotonin is released into the medium, and can be measured directly. The ability of the inventive compounds to inhibit the degranulation response is determined by the decrease in ^3 H Serotonin released in the presence of drug and is represented as % INHIBITION.
Specifically, the serotonin release assay seeds 2×10^5 cells in 0.5 ml medium in duplicate for spontaneous release, IgE+DNP, IgE+DNP+EtOH (vehicle control), and inventive compounds. […] The cells are incubated for 18 hours at 37° C. in 5% CO2, washed twice with 0.5 ml Isotonic Buffer (25 mM disodium PIPES pH 7.1,100 mM NaCl, 5 mM KCl, 5 mM glucose, 0.4 mM MgCl2, 1mM CaCl2, 0.1% BSA), and sterile filtered. 250 μl Isotonic Buffer is added per well and the plates are equilibrated in an incubator for about 10 min. Drug is added and cells are activated with 40 ng/ml DNP-BSA (1 mg/ml Diluted 1:200 in Isotonic Buffer) for 45 minutes using 2 μl/250 μl. Spontaneous release is determined in incubated cells with 250 μl Isotonic Buffer for 45 minutes and the reaction is stopped by removing supernatant and centrifuging at ~4000 rpm in microfuge for 15 seconds to remove any detached cells. Released radiolableled serotonin is counted. To determine amount of ^3 H-serotonin incorporated into the cells, (a) remove Isotonic Buffer and lyse cells by adding 250 μl 1% Triton-X100 in PBS, (b) add to 5 ml scintillation fluid, (c) wash 2× with Triton/PBS, and (d) add washes to scintillation tube. Percent serotonin release is calculated by dividing the amount of released serotonin by the sum of incorporated plus released serotonin and correcting for spontaneous released serotonin. Compound inhibition is calculated by dividing the percent serotonin release in the presence of a compound by the percent serotonin release in the absence of the compound.
This assay is described above and provides an in vitro model for an allergy and asthma therapeutic product.

Row | SMILES | IC50 [1] | cytotoxicity ranking in CMV promoter assay [1] | RELEASE-SPONT (mast cell degranulation) | AVERAGE % RELEASE (mast cell degranulation) | inhibition at 50 µM (mast cell degranulation) | activity in serotonin release assay (mast cell degranulation)
1 | CC(C)=CCCC(C)=CCCC(C)=CCn1c(=O)c2c(ncn2C)n(C)c1=O [CT2544, 1-(Farnesyl)-3,7-dimethylxanthine] | 20 µM | the most cytotoxic compound tested | -1.11% | 15.44% | 114% | –
2 | CC(C)=CCC[C@H](C)CCn1c(=O)c2c(ncn2C)n(C)c1=O [CT1596S, 1-(3-(S)-methyl-7-methyloct-6-enyl)-3,7-dimethylxanthine] | 40 µM | the most cytotoxic compound tested | 3.15% | 19.71% | 60.7% | –
3 | C=CCCCCCCCCCCn1c(=O)c2c(ncn2C)n(C)c1=O [CT2516, 1-(11-dodecenyl)-3,7-dimethylxanthine] | – | – | 5.57% | 22.12% | 30.6% | –
4 | CCCCCCCCC=CCCCCCCCCn1c(=O)c2c(ncn2C)n(C)c1=O [CT2539, 1-(9-octadecenyl)-3,7-dimethylxanthine] | > 100 µM | – | 3.13% | 19.69% | 61% | –
5 | CC/C=C\CCCCCn1c(=O)ccn(C)c1=O [CT1814, 3-(6-cis-nonenyl)1-methyluracil] | 100 µM | – | 5.94% | 22.50% | 25.9% | appears to decrease the activity
6 | C=CCCCCCCCCCN1C(=O)CCCC1=O [CT1610, N-(10-undecenyl)glutarimide] | – | – | 2.27% | 18.83% | 71.7% | –
7 | C=CCCCCCCCCCn1c(=O)c(C)cn(C)c1=O [CT1931, 3-(10-undecenyl)-1-methylthymine] | – | – | 2.23% | 18.78% | 72.2% | –
8 | CC/C=C\CCCCCN1C(=O)CCCC1=O [CT1607, N-(6-cis-nonenyl)glutarimide] | – | – | 3.82% | 20.38% | 52.3% | appears to decrease the activity
9 | C=CCCCCCCCN1C(=O)c2ccccc2C1=O [CT1102, N(8-nonenyl)phthalimide] | 175 µM | – | 2.32% | 18.88% | 71.1% | –
10 | C=CCCCCN1C(=O)c2ccccc2C1=O [CT1101, N(5-hexenyl)phthalimide] | 250 µM | – | 2.05% | 18.60% | 74.5% | –
11 | C=CCCCCCCCn1c(=O)ccn(C)c1=O [CT1817, 3-(8-nonenyl)1-methyluracil] | 250 µM | – | 3.57% | 20.12% | 55.5% | –
12 | C/C=C/CCCn1c(=O)c2c(ncn2C)n(C)c1=O [CT1581, 1-(trans-4-Hexenyl)-3,7-dimethylxanthine] | > 500 µM | – | 4.31% | 20.87% | 46.3% | –
13 | C=CCn1c(=O)c2c(ncn2C)n(C)c1=O [CT1531, 1-(2-propenyl)-3,7-dimethylxanthine] | 50 µM | – | 6.99% | 23.55% | 12.8% | –
14 | C=CCCCn1c(=O)c2c(ncn2C)n(C)c1=O [CT1575, 1-(4-pentenyl)-3,7-dimethylxanthine] | > 500 µM | – | 4.33% | 20.89% | 46% | the two most potent compounds in this group
15 | C=CCCCCCCCCCCCn1c(=O)c2c(ncn2C)n(C)c1=O [CT2555, 1-(12-tridecenyl)-3,7-dimethylxanthine] | – | – | 5.72% | 21.68% | 36.1% | –
